Test results reported in PubChem BioAssay (NCI).
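How tested: cells in 96-well plates exposed to compound for 48 hours at five concentrations. TGI marks complete inhibition of growth.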

What was measured:
Test in all cases: NCI anticancer screen, dose series, 48 h
M14 melanoma = test system: M14 melanoma
ACHN renal = test system: ACHN renal
SNB-19 CNS = test system: SNB-19 CNS
DU-145 prostate = test system: DU-145 prostate
OVCAR-3 ovarian = test system: OVCAR-3 ovarian
MDA-N = test system: MDA-N
EKVX NSCLC = test system: EKVX NSCLC
KM12 colon = test system: KM12 colon
RPMI-8226 leukemia = test system: RPMI-8226 leukemia
IGROV1 ovarian = test system: IGROV1 ovarian
A498 renal = test system: A498 renal

Structure (SMILES)	TGI (M14 melanoma) [µM]	TGI (ACHN renal) [µM]	TGI (SNB-19 CNS) [µM]	TGI (DU-145 prostate) [µM]	TGI (OVCAR-3 ovarian) [µM]	TGI (MDA-N) [µM]	TGI (EKVX NSCLC) [µM]	TGI (KM12 colon) [µM]	TGI (RPMI-8226 leukemia) [µM]	TGI (IGROV1 ovarian) [µM]	TGI (A498 renal) [µM]
CC(=O)O[C@@H]1C[C@@]23C[C@@]24CC[C@H](OC2OCC(O)C(O)C2O)C(C)(C)[C@@H]4CC=C3[C@]2(C)C[C@@H]3OC4(C[C@@H](C)[C@@H]3[C@@]12C)OC(O)[C@@]1(C)O[C@@H]41 (stereo partly specified)	> 100	> 100	> 100	> 100	34.5	> 100	> 100	> 100	47.1	> 100	> 100
O=C(/C(=C\C(=O)c1cccs1)c1ccsc1)c1ccc(Br)cc1	> 100	> 100	> 100	> 100	–	> 100	> 100	> 100	> 100	> 100	> 100
CC1OC2=N[C@@H]1C(=O)N[C@@H](C(C)C)C1=N[C@H](C(=O)N[C@@H](C(C)C)C3=N[C@H](C(=O)N[C@@H](C(C)C)C4=N[C@H](C(=O)N[C@H]2C(C)C)C(C)O4)C(C)O3)C(C)O1 (stereo partly specified)	> 10	> 10	> 10	> 10	> 10	> 10	> 10	> 10	> 10	> 10	> 10
Cc1ccc(C2=NOC(=O)[C@@H]3CCCC[C@@H]23)cc1	> 100	> 100	> 100	> 100	> 100	> 100	> 100	> 100	> 100	> 100	> 100
CCOC(=O)C(=[N+]=[N-])C(=O)Nc1nn2nnnc2c2ccccc12	> 100	> 100	> 100	> 100	> 100	> 100	> 100	> 100	> 100	> 100	> 100
C/C(=C\c1ccccn1)c1ccccn1	> 100	> 100	> 100	> 100	> 100	> 100	> 100	> 100	> 100	> 100	> 100
CC[N+]1(C)CCC(O)(/C=C/c2ccc(OC)cc2)C(C(=O)/C=C/c2ccc(OC)cc2)C1 (stereo unspecified)	30.8	23.2	35.6	31.2	53	> 50.1	> 71.1	16.8	1.04	47.1	31.4
